Here are results for 20 compounds from patent US8765746B2 (Millennium Pharmaceuticals, Inc., priority 2010, dated 2014).

pIC50: −log10 of the molar value.

Type in all cases: biochemical
One assay addresses T1, PI3Kdelta (Homo sapiens, UniProt O00329).
T1 construct: His (N); host or cells: SF9 insect cells (baculovirus)
The experiment in a line: Human PI3K delta enzyme assay (HTRF, as for PI3K alpha). The settings on record: for inhibition at 1.11 µM: read-out: PI3Kdelta % inh; for PI3Kdelta % inh: at 1.11 μM. Put shortly:
(§1)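 N-His p110β/δ co-expressed with untagged p85 in Sf9, p110γ alone. Enzyme 5.25 nM (β), 0.75 nM (δ), 5 nM (γ), with ATP 25 uM and di-C8 PI(4,5)P2 3.5 uM (added-solution levels), pH 7.00, 30 min RT. HTRF read-out: biotin-PIP3, GST-GRP-1 PH domain, Eu anti-GST, streptavidin-XL.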
Background: In TR-FRET formats the signal depends on donor and acceptor labels being close together.

In a further assay the target is T2, PI3Kgamma (Homo sapiens, UniProt P48736).
T2 construct: His (N); host or cells: SF9 insect cells (baculovirus)
Nature of the assay: Human PI3K gamma enzyme assay (HTRF, as for PI3K alpha). The settings on record: for inhibition at 1.11 µM: read-out: PI3Kgamma % inh; for PI3Kgamma % inh: at 1.11 μM. In a few lines: as §1

The target in another assay is T3, PI3Kalpha (Homo sapiens, UniProt P42336).
T3 construct: His (N); host or cells: SF9 insect cells (baculovirus)
Nature of the assay: Human PI3Kα enzyme assay (HTRF). The following applies: for inhibition at 1.11 µM: read-out: PI3Kalpha % inh; for PI3Kalpha % inh: at 1.11 μM. Put shortly:
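His-tagged p110α co-expressed with p85 in Sf9 cells was reacted for 30 min at room temperature in pH 7.00 Hepes buffer with 10 mM MgCl2. Addition solutions held 25 uM ATP, 3.5 uM di-C8 PI(4,5)P2 and 0.4875 nM enzyme. The reaction was quenched with EDTA/biotin-PIP3 and detected by HTRF (GST-GRP-1 PH domain, streptavidin-XL, Eu anti-GST) after 1 h.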

For a further assay, the target named is T4, VPS34 (Homo sapiens, UniProt Q8NEB9).
T4 construct: GST (N); host or cells: SF9 insect cells (baculovirus)
Nature of the assay: Human VPS34 enzyme assay (Adapta Universal Kinase Assay). The settings on record: for inhibition at 1.11 µM: 1 h, read-out: VPS34 % ihn; for VPS34 % ihn: at 1.11 μM. Put shortly: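 Human VPS34, N-terminally GST-tagged and baculovirus-expressed in Sf9 cells. Solution with 20 uM ATP and 200 uM PI-PS added, then one with 5 nM enzyme (levels in each added solution), in buffer with 2 mM DTT and 2 mM MnCl2; 1 h at room temperature. ADP read by Adapta TR-FRET (Eu anti-ADP antibody, Alexa Fluor 647 tracer).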

The target in another assay is T5, PI3Kbeta (Homo sapiens, UniProt P42338).
T5 construct: His (N); host or cells: SF9 insect cells (baculovirus)
The experiment in a line: Human PI3K beta enzyme assay (HTRF, as for PI3K alpha). The settings on record: for inhibition at 1.11 µM: read-out: PI3Kbeta % inh; for pIC50: read-out: IC50 (inhibit PI3Kbeta); for inhibition at 1.11 µM / PI3Kbeta % inh: at 1.11 μM. In a few lines: as §1

T1 sequence (O00329 whole entry): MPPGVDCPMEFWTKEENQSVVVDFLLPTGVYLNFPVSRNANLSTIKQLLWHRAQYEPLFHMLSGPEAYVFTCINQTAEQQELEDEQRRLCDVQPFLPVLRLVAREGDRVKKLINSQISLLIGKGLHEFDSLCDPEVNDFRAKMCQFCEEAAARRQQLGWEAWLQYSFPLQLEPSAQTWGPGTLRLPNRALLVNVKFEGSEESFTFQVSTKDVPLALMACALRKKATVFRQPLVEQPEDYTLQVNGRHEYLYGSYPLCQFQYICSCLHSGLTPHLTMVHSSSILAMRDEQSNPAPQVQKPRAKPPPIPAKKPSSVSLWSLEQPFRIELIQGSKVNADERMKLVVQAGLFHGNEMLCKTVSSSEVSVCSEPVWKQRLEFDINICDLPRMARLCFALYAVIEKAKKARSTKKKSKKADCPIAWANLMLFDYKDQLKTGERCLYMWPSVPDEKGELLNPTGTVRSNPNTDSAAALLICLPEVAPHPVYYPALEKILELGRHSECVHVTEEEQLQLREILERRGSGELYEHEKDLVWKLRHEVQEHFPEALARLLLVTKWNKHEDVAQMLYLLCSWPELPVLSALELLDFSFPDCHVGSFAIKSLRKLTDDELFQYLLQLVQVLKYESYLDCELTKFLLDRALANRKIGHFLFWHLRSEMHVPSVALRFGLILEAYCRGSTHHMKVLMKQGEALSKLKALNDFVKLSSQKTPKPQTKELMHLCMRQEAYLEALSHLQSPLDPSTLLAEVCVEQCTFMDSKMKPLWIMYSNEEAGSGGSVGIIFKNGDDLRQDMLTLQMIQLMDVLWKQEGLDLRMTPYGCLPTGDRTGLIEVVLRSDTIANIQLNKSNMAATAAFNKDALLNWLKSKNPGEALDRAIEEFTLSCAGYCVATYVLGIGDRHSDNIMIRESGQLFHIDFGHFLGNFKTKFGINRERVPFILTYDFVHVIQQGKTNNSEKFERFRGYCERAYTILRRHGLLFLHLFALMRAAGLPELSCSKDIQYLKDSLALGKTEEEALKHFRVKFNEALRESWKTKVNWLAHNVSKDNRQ
T1 sequence (P27986 whole entry partner): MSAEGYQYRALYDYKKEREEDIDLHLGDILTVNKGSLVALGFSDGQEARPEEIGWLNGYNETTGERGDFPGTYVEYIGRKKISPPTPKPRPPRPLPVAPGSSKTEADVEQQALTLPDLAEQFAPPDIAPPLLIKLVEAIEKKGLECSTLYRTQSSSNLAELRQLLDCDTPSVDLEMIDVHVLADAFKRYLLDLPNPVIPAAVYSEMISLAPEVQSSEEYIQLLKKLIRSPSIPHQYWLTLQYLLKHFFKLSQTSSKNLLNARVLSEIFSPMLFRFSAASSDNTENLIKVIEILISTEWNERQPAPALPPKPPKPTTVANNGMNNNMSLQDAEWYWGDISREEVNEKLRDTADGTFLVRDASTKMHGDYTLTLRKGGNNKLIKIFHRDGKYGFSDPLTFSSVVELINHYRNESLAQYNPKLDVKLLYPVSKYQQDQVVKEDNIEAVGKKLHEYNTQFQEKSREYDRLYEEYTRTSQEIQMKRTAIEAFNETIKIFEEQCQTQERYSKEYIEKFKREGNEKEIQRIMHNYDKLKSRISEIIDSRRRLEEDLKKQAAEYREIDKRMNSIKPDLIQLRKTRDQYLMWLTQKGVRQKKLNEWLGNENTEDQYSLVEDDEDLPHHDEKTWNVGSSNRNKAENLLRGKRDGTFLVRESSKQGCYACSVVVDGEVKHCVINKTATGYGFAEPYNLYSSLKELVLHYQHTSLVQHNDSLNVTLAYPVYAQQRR
T4 sequence (Q8NEB9 whole entry): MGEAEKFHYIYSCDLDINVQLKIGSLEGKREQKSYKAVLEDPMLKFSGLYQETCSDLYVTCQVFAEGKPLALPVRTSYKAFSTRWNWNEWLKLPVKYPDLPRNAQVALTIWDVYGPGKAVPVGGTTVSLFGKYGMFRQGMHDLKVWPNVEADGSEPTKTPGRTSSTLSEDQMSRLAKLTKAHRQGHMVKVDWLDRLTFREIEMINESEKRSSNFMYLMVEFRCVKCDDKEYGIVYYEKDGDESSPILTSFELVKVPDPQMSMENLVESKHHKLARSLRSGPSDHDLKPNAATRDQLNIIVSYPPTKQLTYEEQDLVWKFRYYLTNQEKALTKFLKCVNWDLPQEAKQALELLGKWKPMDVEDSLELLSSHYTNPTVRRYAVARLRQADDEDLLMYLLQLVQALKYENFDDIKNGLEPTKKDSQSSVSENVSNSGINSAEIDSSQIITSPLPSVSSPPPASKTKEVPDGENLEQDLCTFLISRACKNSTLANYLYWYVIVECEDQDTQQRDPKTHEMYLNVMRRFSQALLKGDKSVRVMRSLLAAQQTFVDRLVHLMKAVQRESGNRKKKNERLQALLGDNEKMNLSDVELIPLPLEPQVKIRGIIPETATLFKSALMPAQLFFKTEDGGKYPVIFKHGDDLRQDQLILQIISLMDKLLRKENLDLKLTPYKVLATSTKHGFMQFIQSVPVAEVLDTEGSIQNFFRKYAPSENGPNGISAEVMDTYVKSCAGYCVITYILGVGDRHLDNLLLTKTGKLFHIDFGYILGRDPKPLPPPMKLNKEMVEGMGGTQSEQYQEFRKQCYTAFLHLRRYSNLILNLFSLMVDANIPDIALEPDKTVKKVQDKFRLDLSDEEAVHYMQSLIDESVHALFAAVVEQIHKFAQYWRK
T3 sequence (P42336 whole entry): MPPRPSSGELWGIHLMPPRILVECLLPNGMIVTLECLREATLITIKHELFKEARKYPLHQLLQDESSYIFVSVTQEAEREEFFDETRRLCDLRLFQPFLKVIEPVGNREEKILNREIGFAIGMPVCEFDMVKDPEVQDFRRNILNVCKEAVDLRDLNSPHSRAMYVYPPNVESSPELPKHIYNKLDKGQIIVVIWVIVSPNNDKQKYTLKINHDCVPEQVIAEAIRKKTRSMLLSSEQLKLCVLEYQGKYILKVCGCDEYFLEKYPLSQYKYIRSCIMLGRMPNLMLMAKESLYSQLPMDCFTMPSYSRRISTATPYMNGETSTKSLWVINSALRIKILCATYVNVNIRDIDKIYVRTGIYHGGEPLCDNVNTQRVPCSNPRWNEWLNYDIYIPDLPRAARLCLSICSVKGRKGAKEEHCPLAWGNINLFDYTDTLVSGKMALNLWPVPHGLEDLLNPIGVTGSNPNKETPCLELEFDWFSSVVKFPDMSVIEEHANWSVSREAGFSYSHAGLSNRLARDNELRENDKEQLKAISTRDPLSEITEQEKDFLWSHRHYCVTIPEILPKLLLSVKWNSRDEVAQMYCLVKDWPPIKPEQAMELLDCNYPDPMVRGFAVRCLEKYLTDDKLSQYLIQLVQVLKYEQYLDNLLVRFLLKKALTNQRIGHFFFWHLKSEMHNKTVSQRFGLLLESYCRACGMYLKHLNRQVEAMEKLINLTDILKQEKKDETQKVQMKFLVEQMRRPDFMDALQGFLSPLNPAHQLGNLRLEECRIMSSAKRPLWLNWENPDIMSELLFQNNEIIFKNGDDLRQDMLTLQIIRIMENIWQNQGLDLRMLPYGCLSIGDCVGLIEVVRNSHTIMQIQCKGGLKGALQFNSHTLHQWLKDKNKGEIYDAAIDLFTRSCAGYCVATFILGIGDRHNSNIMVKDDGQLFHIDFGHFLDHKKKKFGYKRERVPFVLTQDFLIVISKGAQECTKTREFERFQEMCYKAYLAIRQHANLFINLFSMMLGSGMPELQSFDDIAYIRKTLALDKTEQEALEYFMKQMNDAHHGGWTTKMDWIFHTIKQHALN
T3 sequence (P27986 whole entry partner): as the sequence (P27986 whole entry partner) above
T2 sequence (P48736 whole entry): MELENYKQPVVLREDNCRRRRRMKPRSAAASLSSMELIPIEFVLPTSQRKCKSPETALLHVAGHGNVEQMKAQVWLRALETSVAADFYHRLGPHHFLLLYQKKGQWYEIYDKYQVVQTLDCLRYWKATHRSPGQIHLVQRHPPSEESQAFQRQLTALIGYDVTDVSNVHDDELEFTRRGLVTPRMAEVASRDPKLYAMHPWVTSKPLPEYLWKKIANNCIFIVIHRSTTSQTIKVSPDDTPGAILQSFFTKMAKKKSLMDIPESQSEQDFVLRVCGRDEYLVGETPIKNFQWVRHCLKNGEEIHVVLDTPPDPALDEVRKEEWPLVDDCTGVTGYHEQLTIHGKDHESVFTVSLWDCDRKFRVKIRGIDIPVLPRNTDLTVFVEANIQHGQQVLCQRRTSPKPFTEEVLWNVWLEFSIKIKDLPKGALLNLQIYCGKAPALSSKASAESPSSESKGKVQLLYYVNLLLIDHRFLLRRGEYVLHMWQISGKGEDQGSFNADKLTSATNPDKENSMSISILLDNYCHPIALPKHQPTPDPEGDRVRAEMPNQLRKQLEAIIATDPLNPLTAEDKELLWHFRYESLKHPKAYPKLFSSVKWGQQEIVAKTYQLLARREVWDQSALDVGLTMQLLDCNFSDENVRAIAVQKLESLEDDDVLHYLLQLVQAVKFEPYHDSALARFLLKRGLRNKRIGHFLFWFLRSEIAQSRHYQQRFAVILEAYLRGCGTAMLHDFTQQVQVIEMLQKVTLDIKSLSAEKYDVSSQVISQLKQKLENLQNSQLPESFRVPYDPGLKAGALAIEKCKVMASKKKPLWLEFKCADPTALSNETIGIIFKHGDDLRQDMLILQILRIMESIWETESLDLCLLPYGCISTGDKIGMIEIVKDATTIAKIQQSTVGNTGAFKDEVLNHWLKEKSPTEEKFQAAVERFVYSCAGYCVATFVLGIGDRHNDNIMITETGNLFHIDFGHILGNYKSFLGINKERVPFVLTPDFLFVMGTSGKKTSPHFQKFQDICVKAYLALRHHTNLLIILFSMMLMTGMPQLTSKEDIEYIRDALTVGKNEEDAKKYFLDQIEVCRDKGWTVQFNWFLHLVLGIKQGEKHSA

On to `O=C1CC(c2cccc(Cl)c2)c2cc(N3CCOCC3)sc21` (stereo not shown) [Compound 186], for which the inhibition at 1.11 µM amounted to 74.9% on PI3Kdelta; 23.3% on PI3Kgamma; 15.1% on PI3Kalpha; 26.8% at VPS34; 92.3% on PI3Kbeta.
`Cc1nn2ccccc2c1-c1nc2c(s1)NC(=O)CCC2c1ccc(Cl)cc1` (stereo not shown) [Compound 11, 8-(4-chlorophenyl)-2-(2-methylpyrazolo[1,5-a]pyridin-3-yl)-4,6,7,8-tetrahydro-5H-[1,3]thiazolo[5,4-b]azepin-5-one]: the inhibition at 1.11 µM on PI3Kdelta was 60.3%; on PI3Kgamma it was 5.2%; at PI3Kalpha, 36%; at VPS34 it was -4.2%; on PI3Kbeta, 71.6%. Also, the pIC50 (as a rule, the negative decadic logarithm of the IC50, by convention in mol/L) at PI3Kbeta is 6.00 to 7.00.
For the compound `N#Cc1c(N2CCOCC2)sc2c1C(c1ccc(Cl)cc1)NC2=O` (stereo not shown) [Compound 134, 4-(4-chlorophenyl)-2-(morpholin-4-yl)-6-oxo-5,6-dihydro-4H-thieno[2,3-c]pyrrole-3-carbonitrile], the inhibition at 1.11 µM at PI3Kdelta worked out at 76.5%; on PI3Kgamma, 32.2%; at PI3Kalpha, 33%; on VPS34 it was 9.44%; on PI3Kbeta, 93.8%.
With `CC1(C)CC(=O)c2sc(-c3ccncc3)cc2C1c1ccc(Cl)cc1` (stereo not shown) [Compound 10, 4-(4-chlorophenyl)-5,5-dimethyl-2-pyridin-4-yl-5,6-dihydro-1-benzothiophen-7(4H)-one], the inhibition at 1.11 µM on PI3Kdelta was 32.4%; at PI3Kgamma it was 6.7%; on PI3Kalpha, 0.2%; on VPS34 it was 0.1%; on PI3Kbeta, 71%. The pIC50 on PI3Kbeta was 6.00 to 7.00.
On to `O=C1NCCC(c2ccc(Cl)c(Cl)c2)c2cc(N3CCOCC3)sc21` (stereo not shown) [Compound 185, 4-(3,4-dichlorophenyl)-2-(morpholin-4-yl)-4,5,6,7-tetrahydro-8H-thieno[2,3-c]azepin-8-one], for which the inhibition at 1.11 µM at PI3Kdelta came out at 110%; on PI3Kgamma, 53.4%; at PI3Kalpha, 27.7%; at VPS34, 47.8%; at PI3Kbeta it was 106%.
Consider `N#Cc1c(N2CCOCC2)sc2c1C(c1ccc(Cl)cc1)CNC2=O` (stereo not shown) [Compound 149], for which the inhibition at 1.11 µM on PI3Kdelta was found to be 80.9%; on PI3Kgamma, 29.1%; on PI3Kalpha, 46.1%; on VPS34, 4.85%; on PI3Kbeta it was 108%.
Regarding `O=C1CC(c2ccc(Cl)cc2)c2cc(N3CCOCC3)sc21` (stereo not shown) [Compound 28, 4-(4-chlorophenyl)-2-morpholino-4H-cyclopenta[b]thiophen-6(5H)-one], the inhibition at 1.11 µM on PI3Kdelta worked out at 75%; on PI3Kalpha, 15.7%; on PI3Kbeta, 105%. Also, the PI3Kgamma % inh on PI3Kgamma is reported as 23.550%. Further, at VPS34, the VPS34 % ihn is recorded as 8.600%. For the same compound, at PI3Kbeta, the pIC50 is more than 7.00.
Consider `CN1CC(c2ccc(Cl)cc2)c2cc(N3CCOCC3)sc2C1=O` (stereo not shown) [Compound 198, 4-(4-chlorophenyl)-6-methyl-2-morpholino-5,6-dihydrothieno[2,3-c]pyridin-7(4H)-one], for which the inhibition at 1.11 µM on PI3Kdelta amounted to 62.9%; on PI3Kgamma it was 14.9%; at PI3Kalpha, 8.93%; on VPS34, 8.01%; at PI3Kbeta it was 86.6%.
In the case of `O=C1NCC(c2ccc(Cl)cc2)c2cc(N3CCOCC3)sc21` (stereo not shown) [Compound 128], the inhibition at 1.11 µM at PI3Kdelta was 87%; at PI3Kgamma, 45.9%; at VPS34 it was 36.3%. Moreover, at PI3Kalpha, the PI3Kalpha % inh is listed as 18.03%. Moreover, at PI3Kbeta, the PI3Kbeta % inh came out at 107.54%.
Consider `O/N=C1/CCC(c2ccc(Cl)cc2)c2cc(-c3ccncc3)sc21` (stereo not shown) [Compound 18, (7Z)-4-(4-chlorophenyl)-2-pyridin-4-yl-5,6-dihydro-1-benzothiophen-7(4H)-one oxime], for which the inhibition at 1.11 µM is 53.8% on PI3Kdelta; 21.5% on PI3Kgamma; 18.8% on PI3Kalpha; -4.1% on VPS34; 104% at PI3Kbeta. For the same compound, the negative logarithm of the IC50 (pIC50) on PI3Kbeta was more than 7.00.
In the case of `C[Si](C)(C)CCOCN1CC(O)(c2ccc3ccccc3c2)c2cc(N3CCOCC3)sc2S1(=O)=O` (stereo not shown) [Compound 144, 6-(morpholin-4-yl)-4-(2-naphthyl)-2-{[2-(trimethylsilyl)ethoxy]methyl}-3,4-dihydro-2H-thieno[3,2-e][1,2]thiazin-4-ol 1,1-dioxide], the inhibition at 1.11 µM turned out to be 111% on PI3Kdelta; 67.8% at PI3Kgamma; 41.6% at PI3Kalpha; 5.73% at VPS34; 101% on PI3Kbeta.
The like results for `CN1CC(c2ccc(Cl)cc2)c2cc(-c3ccncc3)sc2C1=O` (stereo not shown) [Compound 164] were, in that order, 14%, 5.01%, -2.24%, 8.39% and 76.8%.
For `Clc1ccc(C2CCc3cn[nH]c3-c3sc(-c4ccncc4)cc32)cc1` (stereo not shown) [Compound 6, 6-(4-chlorophenyl)-8-pyridin-4-yl-1,4,5,6-tetrahydrothieno[3′,2′:6,7]cyclohepta[1,2-c]pyrazole], the inhibition at 1.11 µM at PI3Kdelta was 70.7%; on PI3Kgamma, 14%; at PI3Kalpha, 27%; on VPS34, 10.1%; at PI3Kbeta it was 97.9%. In addition, at PI3Kbeta, the pIC50 is more than 7.00.
`O=C1NCCC(c2ccc(Cl)cc2)c2cc(-c3ccncc3)sc21` (single isomer, unassigned) [Compound 21, 4-(4-chlorophenyl)-2-pyridin-4-yl-4,5,6,7-tetrahydro-8H-thieno[2,3-c]azepin-8-one]: the PI3Kdelta % inh on PI3Kdelta was determined as 79.150%. This compound also showed a PI3Kgamma % inh at PI3Kgamma of 24.700%. Besides, the inhibition at 1.11 µM on PI3Kalpha turned out to be 6.07%; at VPS34 it was 9.1%. This compound also had a PI3Kbeta % inh at PI3Kbeta of 111.967%. On PI3Kbeta, the pIC50 was more than 7.00.
As for `O=S1(=O)NC=C(c2ccc(Cl)cc2)c2cc(-c3ccncc3)sc21` [Compound 27, 4-(4-chlorophenyl)-6-pyridin-4-yl-2H-thieno[3,2-e][1,2]thiazine 1,1-dioxide], the inhibition at 1.11 µM on PI3Kdelta was 46%; on PI3Kgamma it was 12.3%; at PI3Kalpha, 4.9%; at VPS34, 8.5%; at PI3Kbeta, 98.3%. In addition, the pIC50 at PI3Kbeta was 6.00 to 7.00.
Take `CN(C)C(=O)[C@@H]1NC(=O)c2sc(N3CCOCC3)cc2[C@H]1c1ccc(Cl)cc1` [Compound 125]: the inhibition at 1.11 µM was determined as 44.5% at PI3Kdelta; 16.7% on PI3Kgamma; 22.6% at PI3Kalpha; 24.4% on VPS34; 71.8% on PI3Kbeta.
In the case of `O=C1NCCCC(c2ccc(Cl)cc2)c2cc(-c3ccncc3)sc21` (stereo not shown) [Compound 31], the inhibition at 1.11 µM at PI3Kdelta turned out to be 50.5%; on PI3Kgamma, 6.9%; on PI3Kalpha, 16.6%; on VPS34 it was 2%; on PI3Kbeta it was 83.3%. Further, on PI3Kbeta, the pIC50 was 6.00 to 7.00.
On PI3Kdelta, `NC(=O)[C@@H]1NC(=O)c2sc(N3CCOCC3)cc2[C@H]1c1ccc(Cl)cc1` [Compound 126] yielded a PI3Kdelta % inh of 75.35%. At PI3Kgamma, this compound registered a PI3Kgamma % inh of 36.62%. Moreover, the PI3Kalpha % inh on PI3Kalpha is on record as 39.72%. At VPS34, the VPS34 % ihn is recorded as 26.74%. The same compound gave a PI3Kbeta % inh on PI3Kbeta of 98.08%.
In turn, `O=S1(=O)NCC(O)(c2ccc(Cl)cc2)c2cc(-c3ccncc3)sc21` (single isomer, unassigned) [Compound 2, 4-(4-chlorophenyl)-6-pyridin-4-yl-3,4-dihydro-2H-thieno[3,2-e][1,2]thiazin-4-ol 1,1-dioxide] displayed a PI3Kdelta % inh on PI3Kdelta of 63.100%. The compound further gave a PI3Kgamma % inh on PI3Kgamma of 21.200%. Further, the PI3Kalpha % inh on PI3Kalpha came to 3.200%. Moreover, the VPS34 % ihn at VPS34 amounted to 4.300%. On PI3Kbeta, the PI3Kbeta % inh stood at 110.400% and the pIC50 was more than 7.00.
With `CN1CCC(c2ccc(Cl)cc2)c2cc(N3CCOCC3)sc2C1=O` (stereo not shown) [Compound 141, 4-(4-chlorophenyl)-7-methyl-2-(morpholin-4-yl)-4,5,6,7-tetrahydro-8H-thieno[2,3-c]azepin-8-one], the inhibition at 1.11 µM came out at 47.2% on PI3Kdelta; 6.82% at PI3Kgamma; 4.69% at PI3Kalpha; 15.1% at VPS34; 77% at PI3Kbeta.
